The source of these data is ChEMBL document CHEMBL3596180, “Evaluation of histone deacetylase inhibitors (HDACi) as therapeutic leads for human African trypanosomiasis (HAT)” (Bioorg Med Chem, 2015).

Test [1] deals with T1, Protein deacetylase HDAC6 (Homo sapiens, UniProt Q9UBN7).
T1 sequence (Q9UBN7 whole entry): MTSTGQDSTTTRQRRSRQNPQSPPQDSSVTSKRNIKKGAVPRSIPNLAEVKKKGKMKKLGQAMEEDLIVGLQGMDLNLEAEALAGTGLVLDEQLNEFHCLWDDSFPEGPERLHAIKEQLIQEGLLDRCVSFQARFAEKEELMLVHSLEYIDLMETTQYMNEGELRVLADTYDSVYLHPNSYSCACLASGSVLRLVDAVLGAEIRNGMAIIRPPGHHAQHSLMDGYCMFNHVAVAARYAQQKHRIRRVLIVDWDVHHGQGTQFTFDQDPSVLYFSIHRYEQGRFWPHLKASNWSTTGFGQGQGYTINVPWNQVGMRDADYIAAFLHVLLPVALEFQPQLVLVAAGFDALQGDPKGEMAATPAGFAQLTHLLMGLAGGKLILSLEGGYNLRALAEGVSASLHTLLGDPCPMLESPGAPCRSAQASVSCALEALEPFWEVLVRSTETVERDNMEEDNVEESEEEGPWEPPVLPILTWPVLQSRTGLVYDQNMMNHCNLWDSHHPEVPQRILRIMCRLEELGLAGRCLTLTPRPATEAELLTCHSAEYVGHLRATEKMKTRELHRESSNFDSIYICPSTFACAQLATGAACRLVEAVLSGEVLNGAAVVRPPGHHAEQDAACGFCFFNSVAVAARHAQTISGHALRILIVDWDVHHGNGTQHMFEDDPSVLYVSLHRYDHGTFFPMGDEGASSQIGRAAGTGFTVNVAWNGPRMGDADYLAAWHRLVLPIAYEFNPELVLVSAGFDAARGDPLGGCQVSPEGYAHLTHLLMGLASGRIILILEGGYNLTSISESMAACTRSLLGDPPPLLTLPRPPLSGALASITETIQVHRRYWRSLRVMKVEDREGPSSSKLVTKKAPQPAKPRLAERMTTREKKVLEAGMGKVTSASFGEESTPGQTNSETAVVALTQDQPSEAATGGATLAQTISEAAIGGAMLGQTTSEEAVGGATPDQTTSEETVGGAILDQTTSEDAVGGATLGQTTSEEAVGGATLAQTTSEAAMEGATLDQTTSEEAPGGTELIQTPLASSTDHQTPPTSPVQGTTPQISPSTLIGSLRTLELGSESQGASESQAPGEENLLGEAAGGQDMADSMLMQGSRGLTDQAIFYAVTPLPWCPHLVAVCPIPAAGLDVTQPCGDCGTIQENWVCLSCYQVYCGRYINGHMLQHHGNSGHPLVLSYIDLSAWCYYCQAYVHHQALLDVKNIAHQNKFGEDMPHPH
The experiment in a line: Inhibition of human HDAC6.

The target of test [2] is Histone deacetylase 3 (Homo sapiens, UniProt O15379). The experiment in a line: Inhibition of human HDAC3.
In test [3] the target is Histone deacetylase 4 (Homo sapiens, UniProt P56524). The experiment in a line: Inhibition of human HDAC4.
In test [4] the target is Histone deacetylase 1 (Homo sapiens, UniProt Q13547). The experiment in a line: Inhibition of human HDAC1.

One may read the Ki as a dissociation constant, usually derived from enzyme kinetics or from competition with a known ligand.

Histone deacetylase 3, sequence (O15379 whole entry): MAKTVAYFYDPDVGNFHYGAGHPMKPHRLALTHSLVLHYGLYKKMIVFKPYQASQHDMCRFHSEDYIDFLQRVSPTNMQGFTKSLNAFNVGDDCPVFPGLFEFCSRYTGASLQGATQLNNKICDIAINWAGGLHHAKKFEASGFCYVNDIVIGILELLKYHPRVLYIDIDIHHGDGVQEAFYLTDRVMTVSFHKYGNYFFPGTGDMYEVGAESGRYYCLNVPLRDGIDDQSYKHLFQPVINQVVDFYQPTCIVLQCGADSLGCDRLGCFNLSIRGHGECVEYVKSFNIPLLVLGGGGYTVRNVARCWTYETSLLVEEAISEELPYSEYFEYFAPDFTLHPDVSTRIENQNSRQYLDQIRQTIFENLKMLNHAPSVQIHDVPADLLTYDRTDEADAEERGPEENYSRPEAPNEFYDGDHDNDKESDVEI
Histone deacetylase 4, sequence (P56524 whole entry): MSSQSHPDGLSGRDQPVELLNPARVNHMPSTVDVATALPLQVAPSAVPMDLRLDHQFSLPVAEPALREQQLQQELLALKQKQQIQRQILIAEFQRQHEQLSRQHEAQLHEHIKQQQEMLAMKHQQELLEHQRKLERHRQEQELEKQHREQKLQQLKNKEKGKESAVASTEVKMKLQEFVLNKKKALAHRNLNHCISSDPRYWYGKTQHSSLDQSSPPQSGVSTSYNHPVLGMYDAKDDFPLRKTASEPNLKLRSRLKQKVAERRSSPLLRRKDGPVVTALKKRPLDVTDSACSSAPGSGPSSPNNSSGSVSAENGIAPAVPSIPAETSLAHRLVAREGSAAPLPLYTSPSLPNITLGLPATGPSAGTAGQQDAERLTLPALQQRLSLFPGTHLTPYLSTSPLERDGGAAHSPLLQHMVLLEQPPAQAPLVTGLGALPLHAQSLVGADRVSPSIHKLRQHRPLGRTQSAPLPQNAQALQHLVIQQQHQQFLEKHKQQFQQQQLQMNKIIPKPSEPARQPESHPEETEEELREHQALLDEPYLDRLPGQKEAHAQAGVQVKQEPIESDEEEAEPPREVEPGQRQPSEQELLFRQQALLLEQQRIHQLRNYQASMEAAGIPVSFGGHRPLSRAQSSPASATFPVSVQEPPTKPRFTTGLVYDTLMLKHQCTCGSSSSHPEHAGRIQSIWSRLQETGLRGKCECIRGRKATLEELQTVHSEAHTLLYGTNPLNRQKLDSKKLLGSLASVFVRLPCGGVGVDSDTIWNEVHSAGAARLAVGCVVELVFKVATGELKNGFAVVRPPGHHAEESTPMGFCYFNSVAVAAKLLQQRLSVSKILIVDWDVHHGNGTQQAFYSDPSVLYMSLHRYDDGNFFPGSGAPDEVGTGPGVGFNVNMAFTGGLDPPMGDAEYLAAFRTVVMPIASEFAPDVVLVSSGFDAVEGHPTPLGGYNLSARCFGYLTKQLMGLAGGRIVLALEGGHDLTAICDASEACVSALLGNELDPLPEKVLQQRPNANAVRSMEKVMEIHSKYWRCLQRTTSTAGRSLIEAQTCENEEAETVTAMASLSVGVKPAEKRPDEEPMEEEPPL
Histone deacetylase 1, sequence (Q13547 whole entry): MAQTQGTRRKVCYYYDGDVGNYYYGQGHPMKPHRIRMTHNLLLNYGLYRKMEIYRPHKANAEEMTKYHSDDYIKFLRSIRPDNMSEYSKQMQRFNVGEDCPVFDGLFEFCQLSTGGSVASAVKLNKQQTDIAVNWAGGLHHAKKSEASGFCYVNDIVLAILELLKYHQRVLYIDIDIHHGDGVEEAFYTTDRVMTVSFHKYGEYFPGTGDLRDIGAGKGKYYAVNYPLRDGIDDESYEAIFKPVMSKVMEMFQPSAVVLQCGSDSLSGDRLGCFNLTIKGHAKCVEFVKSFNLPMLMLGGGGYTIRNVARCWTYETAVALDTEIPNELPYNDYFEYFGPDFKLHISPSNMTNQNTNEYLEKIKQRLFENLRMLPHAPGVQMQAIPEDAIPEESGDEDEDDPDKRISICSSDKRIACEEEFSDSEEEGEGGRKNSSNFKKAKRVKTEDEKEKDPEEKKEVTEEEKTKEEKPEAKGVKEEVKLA

Turning to `O=C(/C=C/C#Cc1cccc(NS(=O)(=O)c2ccccc2)c1)NO` [OXAMFLATIN], the Ki in test [1] came out at 136 nM; in test [2] it was 2.7 nM; in test [3], 2030 nM; in test [4] it was 1.3 nM.
